For the data set the following is noted: amide bond.
Where [1] appears, read: the molecule shown is the open-chain precursor, 23-membered ring, as Reference Example 8 (not in excerpt), 3 steps.

Like-named read-outs stand apart in the source and are kept apart here.

On to “H-Ser(Bzl)-Asn-Leu-Ser(Bzl)-Thr(Bzl)-Cpc(ONp)-OMe?”, for which the ring closure, isolated yield under setting [1] came to 55.9%.

“H-Asn-Leu-Ser(Bzl)-Thr(Bzl)-Lys(COCH2CH2CO-ONp)-OMe?” yielded a ring closure, isolated yield under setting [1] of 34.9%.

Turning to Acp-Asn-Leu-Ser(Bzl)-Thr(Bzl)-Asp-OEt, the ring closure, isolated yield (23-membered ring, ONp active ester (from TFA-ONp)/pyridine, pyridine/DMF, 50.0 °C, 3 steps) was 26.6%.

On to “H-Abu-Asn-Leu-Ser(Bzl)-Thr(Bzl)-Cec(ONp)-OMe?”, for which the ring closure, isolated yield (the molecule shown is the open-chain precursor, as Reference Example 8 (not in excerpt), 3 steps) is 47.1%.

Consider “H-Ser(Bzl)-Asn-Leu-Ser(Bzl)-Thr(Bzl)-Tyr(CH2CO-ONp)-OMe?”, for which the ring closure, isolated yield (the molecule shown is the open-chain precursor, 25-membered ring, as Reference Example 8, then Reference Example 9 (not in excerpt), 4 steps) was determined as 43.8%.
